Results: patent publication US20250313820A1, “PEPTIDES WITH MULTIVALENT EFFECTS” (In2Cure AB, priority 2021, published 2025)
Read-outs that look alike come from different tables or passages of the source. Marks after values point to notes of the source that are not given here. Where a SMILES comes first, the peptide text is derived from it. Bridges are numbered along the chain shown (N, C = ends). [ ]: non-standard residue; d: D form. S5 = C=CCCC[C@](C)(N)C(=O)O

Assays:
[1] = system: erythrocytes (RBCs); assay type: cell-based, human; details: for Hemolytic activity, lysed RBCs: 1 h
Procedure: (§1) Fresh venous blood from healthy donors was collected in lepirudine tubes (50 μg mL-1). Then 50 μL of blood were transferred to round-bottom 96-wells plate containing 150 μL of peptides previously diluted in RPMI-1640—GlutaMAX-I without phenol red (Gibco). 1:4 diluted blood was used as control. 50 μL of blood mixed with 150 μl 5% Tween-20 were used as positive control. After 1 h incubation at 37° C. and 5% CO2, the plate was centrifuged at 800 g, 150 μL of each sample were transferred to a flat-bottom 96-wells plate and the absorbance at 450 nm was measured. The percentage of hemolysis was calculated following the formula reported below: […]
To evaluate the hemolytic effect of the peptides on erythrocytes the blood was collected as reported above and centrifuged at 250 g for 10 min. Then plasma was discarded, and red blood cells were washed with 150 mM NaCl in 10 mM Tris pH 7.4 for three times. Next, the pellet was dilute 100 times with saline Tris buffer. 100 μL of this solution were added to round-bottom 96-wells plate containing 100 μL of peptides previously diluted in saline Tris buffer. After 1 h incubation at 37° C. and 5% CO2, the plate was centrifuged and the absorbance at 450 nm was measured, then the percentage of erythrocyte lysis was determined using formula reported above.
(§2) Data shown are mean values±SEM obtained from at least four independent experiments all made in triplicate. For each experiment blood from a different donor was used.

[2] = system: whole blood; assay type: cell-based, human; details: 1 h
Procedure: as §1, §2

SMILES | Hemolytic activity, lysed RBCs ([1]; 50 μM) | Hemolytic activity, lysed RBCs in whole blood ([2]; 50 μM) | Hemolytic activity, lysed RBCs [1] | Hemolytic activity, lysed RBCs in whole blood [2] | hemolytic activity, RBCs or whole blood (heatmaps FIG. 4, FIG. 20a), in words [1]
CC[C@H](C)[C@H](NC(=O)[C@H](Cc1c[nH]c2ccccc12)NC(=O)[C@H](CCCCN)NC(=O)[C@H](CCCCN)NC(=O)[C@H](CC(C)C)NC(=O)[C@H](CCCNC(=N)N)NC(=O)[C@H](Cc1ccccc1)NC(=O)[C@@H](NC(=O)[C@@H](N)Cc1cnc[nH]1)C(C)C)C(=O)N[C@@H](CCC(N)=O)C(=O)N[C@@H](CCCCN)C(=O)N[C@H](C(=O)N[C@H](C(=O)N[C@@H](CC(=O)O)C(=O)N[C@@H](CCC(N)=O)C(=O)N[C@@H](Cc1ccccc1)C(=O)NCC(=O)N[C@@H](CCC(=O)O)C(=O)O)[C@@H](C)CC)C(C)C [HVF18, reference compound] (H-HVFRLKKWIQKVIDQFGE-OH) | 28.5 ± 3.0 % | <1* % | – | – | –
CC[C@H](C)[C@H](NC(=O)[C@H](Cc1c[nH]c2ccccc12)NC(=O)[C@H](CCCCN)NC(=O)[C@H](CCCCN)NC(=O)[C@H](CC(C)C)NC(=O)[C@H](CCCNC(=N)N)NC(=O)[C@H](Cc1ccccc1)NC(=O)[C@@H](NC(=O)[C@H](CCCCN)NC(=O)[C@H](CCCCN)NC(=O)[C@H](CCCCN)NC(=O)[C@@H](N)CCCCN)C(C)C)C(=O)N[C@@]1(C)CCCC=CCCC[C@@](C)(C(=O)N[C@@H](CCC(N)=O)C(=O)N[C@@H](Cc2ccccc2)C(=O)NCC(=O)N[C@@H](CCC(=O)O)C(=O)O)NC(=O)[C@H]([C@@H](C)CC)NC(=O)[C@H](C(C)C)NC(=O)[C@H](CCCCN)NC1=O [sKKKKVF18, KKKKVFRLKKWIX1KVIX2QFGE] (H-KKKKVFRLKKWI[S5]KVI[S5]QFGE-OH; staple 13-17) | – | – | 39.1 ± 5.4% | <1% | –
CC[C@H](C)[C@H](NC(=O)[C@H](Cc1c[nH]c2ccccc12)NC(=O)[C@H](CCCCN)NC(=O)[C@H](CCCCN)NC(=O)[C@H](CC(C)C)NC(=O)[C@H](CCCNC(=N)N)NC(=O)[C@H](Cc1ccccc1)NC(=O)[C@@H](NC(=O)[C@H](CCCCN)NC(=O)[C@H](CCCCN)NC(=O)[C@@H](N)CCCCN)C(C)C)C(=O)N[C@@]1(C)CCCC=CCCC[C@@](C)(C(=O)N[C@@H](CCC(N)=O)C(=O)N[C@@H](Cc2ccccc2)C(=O)NCC(=O)N[C@@H](CCC(=O)O)C(=O)O)NC(=O)[C@H]([C@@H](C)CC)NC(=O)[C@H](C(C)C)NC(=O)[C@H](CCCCN)NC1=O [sKKKVF18, KKKVFRLKKWIX1KVIX2QFGE] (H-KKKVFRLKKWI[S5]KVI[S5]QFGE-OH; staple 12-16) | – | – | 47.1 ± 8.1% | <1% | –
CC[C@H](C)[C@H](NC(=O)[C@H](Cc1c[nH]c2ccccc12)NC(=O)[C@H](CCCCN)NC(=O)[C@H](CCCCN)NC(=O)[C@H](CC(C)C)NC(=O)[C@H](CCCNC(=N)N)NC(=O)[C@H](Cc1ccccc1)NC(=O)[C@@H](NC(=O)[C@H](CCCCN)NC(=O)[C@@H](N)CCCCN)C(C)C)C(=O)N[C@@]1(C)CCCC=CCCC[C@@](C)(C(=O)N[C@@H](CCC(N)=O)C(=O)N[C@@H](Cc2ccccc2)C(=O)NCC(=O)N[C@@H](CCC(=O)O)C(=O)O)NC(=O)[C@H]([C@@H](C)CC)NC(=O)[C@H](C(C)C)NC(=O)[C@H](CCCCN)NC1=O [sKKVF18, KKVFRLKKWIX1KVIX2QFGE] (H-KKVFRLKKWI[S5]KVI[S5]QFGE-OH; staple 11-15) | – | – | 27.8 ± 3.0% | <1% | –
CC[C@H](C)[C@H](NC(=O)[C@H](Cc1c[nH]c2ccccc12)NC(=O)[C@H](CCCCN)NC(=O)[C@@H](N)CCCCN)C(=O)N[C@@]1(C)CCCC=CCCC[C@@](C)(C(=O)N[C@@H](CCC(N)=O)C(=O)N[C@@H](Cc2ccccc2)C(=O)NCC(=O)N[C@@H](CCC(=O)O)C(=O)O)NC(=O)[C@H]([C@@H](C)CC)NC(=O)[C@H](C(C)C)NC(=O)[C@H](CCCCN)NC1=O [sKKW13, KKWIX1KVIX2QFGE] (H-KKWI[S5]KVI[S5]QFGE-OH; staple 5-9) | – | – | – | – | low hemolytic activity
CC[C@H](C)[C@H](NC(=O)[C@H](Cc1c[nH]c2ccccc12)NC(=O)[C@H](CCCCN)NC(=O)[C@H](CCCCN)NC(=O)[C@H](CC(C)C)NC(=O)[C@H](CCCNC(=N)N)NC(=O)[C@H](Cc1ccccc1)NC(=O)[C@@H](NC(=O)[C@@H](N)CCCCN)C(C)C)C(=O)N[C@@]1(C)CCCC=CCCC[C@@](C)(C(=O)N[C@@H](CCC(N)=O)C(=O)N[C@@H](Cc2ccccc2)C(=O)NCC(=O)N[C@@H](CCC(=O)O)C(=O)O)NC(=O)[C@H]([C@@H](C)CC)NC(=O)[C@H](C(C)C)NC(=O)[C@H](CCCCN)NC1=O [sKVF18, KVFRLKKWIXKVIXQFGE] (H-KVFRLKKWI[S5]KVI[S5]QFGE-OH; staple 10-14) | – | – | 51.4 ± 4.9% | <1% | –
CC[C@H](C)[C@H](NC(=O)[C@H](Cc1c[nH]c2ccccc12)NC(=O)[C@H](CCCCN)NC(=O)[C@H](CCCCN)NC(=O)[C@@H](N)CC(C)C)C(=O)N[C@@]1(C)CCCC=CCCC[C@@](C)(C(=O)N[C@@H](CCC(N)=O)C(=O)N[C@@H](Cc2ccccc2)C(=O)NCC(=O)N[C@@H](CCC(=O)O)C(=O)O)NC(=O)[C@H]([C@@H](C)CC)NC(=O)[C@H](C(C)C)NC(=O)[C@H](CCCCN)NC1=O [sLKK14, LKKWIX1KVIX2QFGE] (H-LKKWI[S5]KVI[S5]QFGE-OH; staple 6-10) | – | – | – | – | low hemolytic activity
CC[C@H](C)[C@H](NC(=O)[C@H](Cc1c[nH]c2ccccc12)NC(=O)[C@H](CCCCN)NC(=O)[C@H](CCCCN)NC(=O)[C@H](CC(C)C)NC(=O)[C@H](CCCNC(=N)N)NC(=O)[C@H](Cc1ccccc1)NC(=O)[C@@H](NC(=O)[C@H](CCCNC(=N)N)NC(=O)[C@H](CCCNC(=N)N)NC(=O)[C@H](CCCNC(=N)N)NC(=O)[C@@H](N)CCCNC(=N)N)C(C)C)C(=O)N[C@@]1(C)CCCC=CCCC[C@@](C)(C(=O)N[C@@H](CCC(N)=O)C(=O)N[C@@H](Cc2ccccc2)C(=O)NCC(=O)N[C@@H](CCC(=O)O)C(=O)O)NC(=O)[C@H]([C@@H](C)CC)NC(=O)[C@H](C(C)C)NC(=O)[C@H](CCCCN)NC1=O [sRRRRVF18, RRRRVFRLKKWIX1KVIX2QFGE] (H-RRRRVFRLKKWI[S5]KVI[S5]QFGE-OH; staple 13-17) | – | – | 64.9 ± 11.4% | <1% | –
CC[C@H](C)[C@H](NC(=O)[C@H](Cc1c[nH]c2ccccc12)NC(=O)[C@H](CCCCN)NC(=O)[C@H](CCCCN)NC(=O)[C@H](CC(C)C)NC(=O)[C@H](CCCNC(=N)N)NC(=O)[C@H](Cc1ccccc1)NC(=O)[C@@H](NC(=O)[C@H](CCCNC(=N)N)NC(=O)[C@H](CCCNC(=N)N)NC(=O)[C@@H](N)CCCNC(=N)N)C(C)C)C(=O)N[C@@]1(C)CCCC=CCCC[C@@](C)(C(=O)N[C@@H](CCC(N)=O)C(=O)N[C@@H](Cc2ccccc2)C(=O)NCC(=O)N[C@@H](CCC(=O)O)C(=O)O)NC(=O)[C@H]([C@@H](C)CC)NC(=O)[C@H](C(C)C)NC(=O)[C@H](CCCCN)NC1=O [sRRRVF18, RRRVFRLKKWIX1KVIX2QFGE] (H-RRRVFRLKKWI[S5]KVI[S5]QFGE-OH; staple 12-16) | – | – | 61.5 ± 6.2% | <1% | –
CC[C@H](C)[C@H](NC(=O)[C@H](Cc1c[nH]c2ccccc12)NC(=O)[C@H](CCCCN)NC(=O)[C@H](CCCCN)NC(=O)[C@H](CC(C)C)NC(=O)[C@H](CCCNC(=N)N)NC(=O)[C@H](Cc1ccccc1)NC(=O)[C@@H](NC(=O)[C@H](CCCNC(=N)N)NC(=O)[C@@H](N)CCCNC(=N)N)C(C)C)C(=O)N[C@@]1(C)CCCC=CCCC[C@@](C)(C(=O)N[C@@H](CCC(N)=O)C(=O)N[C@@H](Cc2ccccc2)C(=O)NCC(=O)N[C@@H](CCC(=O)O)C(=O)O)NC(=O)[C@H]([C@@H](C)CC)NC(=O)[C@H](C(C)C)NC(=O)[C@H](CCCCN)NC1=O [sRRVF18, RRVFRLKKWIX1KVIX2QFGE] (H-RRVFRLKKWI[S5]KVI[S5]QFGE-OH; staple 11-15) | – | – | 49.1 ± 4.9% | <1% | –
CC[C@H](C)[C@H](NC(=O)[C@H](Cc1c[nH]c2ccccc12)NC(=O)[C@H](CCCCN)NC(=O)[C@H](CCCCN)NC(=O)[C@H](CC(C)C)NC(=O)[C@H](CCCNC(=N)N)NC(=O)[C@H](Cc1ccccc1)NC(=O)[C@@H](NC(=O)[C@@H](N)CCCNC(=N)N)C(C)C)C(=O)N[C@@]1(C)CCCC=CCCC[C@@](C)(C(=O)N[C@@H](CCC(N)=O)C(=O)N[C@@H](Cc2ccccc2)C(=O)NCC(=O)N[C@@H](CCC(=O)O)C(=O)O)NC(=O)[C@H]([C@@H](C)CC)NC(=O)[C@H](C(C)C)NC(=O)[C@H](CCCCN)NC1=O [sRVF18, RVFRLKKWIXKVIXQFGE] (H-RVFRLKKWI[S5]KVI[S5]QFGE-OH; staple 10-14) | – | – | 53.6 ± 3.8% | <1% | –
